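The compound was tested at five concentrations on cells cultured in 96-well plates, with a 48-hour exposure period. GI50 marks 50% less growth.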 Active and inactive are the calls of the source. No stated cut-off is given here; in the data, active = GI50 up to about 1.1 µM and inactive = higher.
Assays:
Experiment in all cases: inhibition of tumour cell growth, NCI panel, 48 h
DMS-114 = tested on: DMS-114
LXFL 529 = tested on: LXFL 529
RXF 631 = tested on: RXF 631
XF498 = tested on: XF498
SNB-78 = tested on: SNB-78
DMS-273 = tested on: DMS-273
DLD-1 = tested on: DLD-1
M19-MEL = tested on: M19-MEL
BT-549 = tested on: BT-549

| SMILES | GI50 (DMS-114) | GI50 (LXFL 529) | GI50 (RXF 631) | GI50 (XF498) | GI50 (SNB-78) | GI50 (DMS-273) | GI50 (DLD-1) | GI50 (M19-MEL) | GI50 (BT-549) |
| --- | --- | --- | --- | --- | --- | --- | --- | --- | --- |
| N#CC(C#N)=Cc1ccc(CP(=O)(O)O)cc1 | > 100 µM (inactive) | > 100 µM (inactive) | > 100 µM (inactive) | > 100 µM (inactive) | > 100 µM (inactive) | > 100 µM (inactive) | > 100 µM (inactive) | > 100 µM (inactive) | – |
| CC1[C@@]2(CCC(C)(C)O2)O[C@@H]2C=C3C4CCC5Cc6nc7c(nc6C[C@@]5(C)C4C[C@H](O)[C@@]3(C)[C@]12O)CC1CCC2C3=C[C@H]4O[C@@]5(O[C@@](C)(CO)C[C@@H]5O)C(C)[C@@]4(O)[C@]3(C)[C@@H](O)CC2[C@]1(C)C7 (some centres not stated) | 0.0268 µM (active) | 0.0254 µM (active) | 0.0198 µM (active) | 0.322 µM (active) | 0.043 µM (active) | 0.0123 µM (active) | 0.753 µM (active) | 0.991 µM (active) | – |
| Cc1ccc2nc3c(C)c(Cl)c(=O)cc-3sc2c1 | 2.97 µM (inactive) | 4.94 µM (inactive) | 24.3 µM (inactive) | 10 µM (inactive) | 32.2 µM (inactive) | 22.4 µM (inactive) | 19.2 µM (inactive) | 4.68 µM (inactive) | 20.9 µM (inactive) |
| Oc1cc(O)c(Oc2cccc(O)c2O)c(O)c1 | 57.7 µM (inactive) | > 100 µM (inactive) | > 100 µM (inactive) | 29.5 µM (inactive) | > 100 µM (inactive) | > 100 µM (inactive) | – | 21.1 µM (inactive) | – |
| COc1ccccc1/C=C\c1cc(OC)c(OC)c(OC)c1 | 6.41 µM (inactive) | 12.9 µM (inactive) | 15.8 µM (inactive) | 9.64 µM (inactive) | 28.3 µM (inactive) | 4.62 µM (inactive) | 23.2 µM (inactive) | 9.1 µM (inactive) | – |
| Cc1ccccc1NC(=O)CC(=O)NNCC(=O)Nc1nnc(-c2ccccc2)s1 | 43.6 µM (inactive) | 39.2 µM (inactive) | > 100 µM (inactive) | 31.9 µM (inactive) | > 100 µM (inactive) | 73.6 µM (inactive) | 98.9 µM (inactive) | > 100 µM (inactive) | – |
| O=C(c1ccccc1)c1c(C(=O)c2ccccc2)c(-c2ccccc2)c2c(-c3ccccc3)sc(-c3ccccc3)c2c1-c1ccccc1 | > 100 µM (inactive) | > 100 µM (inactive) | > 100 µM (inactive) | > 100 µM (inactive) | > 100 µM (inactive) | > 100 µM (inactive) | > 100 µM (inactive) | > 100 µM (inactive) | – |
| O=C(Nc1nc2c(ncn2C2OC(CO)C(O)C2O)c(=O)[nH]1)c1ccccc1 (configuration not stated) | – | > 100 µM (inactive) | > 100 µM (inactive) | > 100 µM (inactive) | > 100 µM (inactive) | > 100 µM (inactive) | > 100 µM (inactive) | > 100 µM (inactive) | – |
| Cc1ccccc1C1=C(C(=O)Nc2ccc(Cl)c(Cl)c2)NC(=S)NC1N (configuration not stated) | > 100 µM (inactive) | > 100 µM (inactive) | > 100 µM (inactive) | > 100 µM (inactive) | > 100 µM (inactive) | > 100 µM (inactive) | > 100 µM (inactive) | > 100 µM (inactive) | – |
| Cc1cccc(NC2=NC(=O)C(CC(=O)Nc3ccccc3Cl)S2)c1 (configuration not stated) | > 100 µM (inactive) | > 100 µM (inactive) | > 100 µM (inactive) | 95.1 µM (inactive) | > 100 µM (inactive) | > 100 µM (inactive) | > 100 µM (inactive) | > 100 µM (inactive) | – |
| Cc1ccc(NC(=O)C(=O)C2C(=O)N(c3ccccc3)N=C2N)cc1C (configuration not stated) | > 100 µM (inactive) | > 100 µM (inactive) | > 100 µM (inactive) | > 100 µM (inactive) | > 100 µM (inactive) | > 100 µM (inactive) | > 100 µM (inactive) | > 100 µM (inactive) | – |

From ChEMBL document CHEMBL1201862, “PubChem BioAssay data set” (2004)
